How the values were obtained:
human CPT1A = molecular target: T1, human CPT1A (Homo sapiens, UniProt P50416); assay: Human CPT1A LC/MS assay; format: biochemical; conditions: human CPT1A LC/MS assay, dose response format
T1 construct: made in house; host or cells: Saccharomyces cerevisiae (pESC-trp) or cultured mammalian cells (pCDNA3.1); mitochondrial extract
T1 sequence (P50416 1-773): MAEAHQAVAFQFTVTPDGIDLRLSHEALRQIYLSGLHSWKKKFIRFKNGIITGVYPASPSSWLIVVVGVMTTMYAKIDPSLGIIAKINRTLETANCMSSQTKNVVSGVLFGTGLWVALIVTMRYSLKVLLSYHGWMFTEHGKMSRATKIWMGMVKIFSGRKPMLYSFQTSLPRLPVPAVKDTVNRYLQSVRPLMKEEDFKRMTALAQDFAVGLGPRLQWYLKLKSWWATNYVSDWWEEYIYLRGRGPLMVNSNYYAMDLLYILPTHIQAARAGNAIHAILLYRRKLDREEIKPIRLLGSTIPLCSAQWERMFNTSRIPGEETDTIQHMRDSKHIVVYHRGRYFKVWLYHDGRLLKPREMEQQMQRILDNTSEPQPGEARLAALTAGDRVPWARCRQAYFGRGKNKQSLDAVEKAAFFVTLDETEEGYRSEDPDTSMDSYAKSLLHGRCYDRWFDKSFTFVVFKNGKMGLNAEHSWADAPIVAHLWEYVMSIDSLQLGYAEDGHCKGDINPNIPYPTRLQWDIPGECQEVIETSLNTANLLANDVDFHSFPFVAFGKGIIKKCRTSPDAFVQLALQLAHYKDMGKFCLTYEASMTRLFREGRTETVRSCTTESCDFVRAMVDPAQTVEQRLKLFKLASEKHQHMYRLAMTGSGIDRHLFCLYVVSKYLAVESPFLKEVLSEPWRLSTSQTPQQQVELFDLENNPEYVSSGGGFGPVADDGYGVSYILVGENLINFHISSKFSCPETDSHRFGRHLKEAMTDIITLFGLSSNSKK
Source text: Nucleotide sequences encoding human CPT1 enzymes were individually cloned into the yeast expression vector pESC-trp at the Cla1 (5′ terminus) and Pac1 (3′ terminus) restriction sites by PCR amplification of the open reading frame using oligonucleotide primers designed to encode the wild-type CPT1 protein sequence. Standard molecular biology techniques were used to transform and express the CPT1 proteins in the yeast Saccharomyces cerevisiae. The yeast cells were lysed by enzymatic degradation of the cell wall by Zymolase, and the mitochondria were isolated by standard biochemical techniques. The integrity of the isolated mitochondria was monitored by determining the activity of succinate dehydrogenase in the mitochondrial preparations. The mitochondrial extracts were stored at −80° C. in buffer containing 10 mM HEPES pH 7.4 and 250 mM sucrose.
Human CPT1 (A, B, C) genes were additionally cloned into the pCDNA3.1 vector individually for expression in cultured mammalian cells. Cells expressing the exogenous CPT1A were identified and grown under standard conditions. Mammalian cells were harvested, and mitochondrial extracts prepared using standard biochemical methods. The mitochondrial extracts were stored at −80° C. in buffer containing 10 mM HEPES pH 7.4 and 250 mM sucrose.
Assays were performed in 96-well plate format. Each 100 μL reaction contained 40 mM KCl, 50 mM TrisHCl pH 7.5, and 250 mM mannitol (Assay Buffer), and 1.6 μg protein of an extract, 20 μM palmitoyl-CoA, 50 μM L-carnitine, and 10 ug/mL BSA. Reactions were incubated at room temperature and stopped after 10 minutes by extraction with 200 μL of water saturated n-butanol containing myristoyl carnitine (500 nM) as an internal standard. The samples were thoroughly mixed, and the phases separated by centrifugation. Samples were prepared for analysis with a 10 fold dilution of the n-butanol phase containing the reaction product palmitoyl carnitine into a 50:50 (acetonitrile:water) solvent for analysis. 5 μL of prepared sample was separated on a Phenomenex Jupiter 5μ C4 reverse-phase column using an Agilent 1100 HPLC with a gradient from 50% acetonitrile (0.5% acetic acid) to 100% acetonitrile and quantified by detection with a Bruker Esquire 3000plus mass spectrometer. The abundance of the palmitoyl carnitine product was determined relative to the internal standard and the actual quantity of palmitoyl carnitine can be determined from a standard curve prepared using the n-butanol solution containing the internal standard.
Compounds were evaluated in two formats, a screening format, and a dose response format. The screening format was performed by adding 25 μL compound in 20% DMSO and Assay Buffer to 25 μL of extract containing […] and Assay Buffer, followed by a 10 minute incubation at room temperature. 50 μL of 40 μM palmitoyl-CoA in Assay Buffer was added to the reaction mixture, mixed and incubated for 10 minutes at room temperature. A negative control for activity was also performed where the carnitine was omitted from the reaction. A positive control for activity was also performed by omitting compound from the solution containing 20% DMSO and Assay Buffer. The reaction mixture was extracted and analyzed as described above. The inhibition by compound was determined by comparing the control relative activity to the relative activity observed in wells containing the compound. Relative activity was determined by subtracting the relative intensity (area palmitoyl carnitine/area myristoyl carnitine) observed in the negative control from the relative intensity observed in the experimental well, and dividing by the relative activity observed in the positive control.
[formula] Compound characterization by dose response format was performed using the above described assay conditions and a 16 point compound titration in 2 fold compound dilution steps. The DMSO concentration was kept constant at 20% (v/v) for all compound concentrations.

[1] = tested on: cancer cell lines from breast, lung, colon, brain, prostate and ovarian cancer; assay: Cancer cell growth inhibition, SRB assay, cell line panel; format: cell-based, human; conditions: cell lines of Tables 2 and 3; for S11: at 10 μM, all lines other than MDA-231, A549, H460, HCT-8
Method: Human cancer cells (MCF-7, H358, H460, HCT116 p53^+/+, HCT116 p53^−/−, A172, PC-3, DU-145 and SW626) were maintained in DMEM medium containing 10% Fetal Bovine Serum (FBS) (Invitrogen, Burlington, ON, Canada) and normal cells HMEC, 184A1, NHBE and PrEC were cultured in MEGM, MEGM plus transferring and cholera toxin, BEGM and PrEGM supplemented with various growth factors (Cambrex, Charles city, Iowa, USA), respectively.
Compounds of Examples S1 to S30, and 4-(carboxymethyl)-4-(6-(3-hexyloxy)phenoxy)hexanoamido)-1,1-dimethylpiperidinium 2,2,2-trifluoroactate (“Compound A”) were tested in this example. Each of the tested compounds was dissolved in DMSO and further diluted in cell culture medium for the experiments performed. […] Cell viability was assessed by Sulforhodamine B (SRB) assay at Day 6.
Sulforhodamine B (SRB) (Sigma, Oakville, ON, Canada) is a water-soluble dye that binds to the basic amino acids of the cellular proteins. […] Absorbance was read at 570 nm on a spectrophotometer. […] Growth inhibition (%) was determined as percentage of cells remaining compared to the DMSO-treated cells as control.
All of the compounds shown in Tables 2 and 3 had activity against at least one cell line (“NT” means not tested; and “NE” means no activity at 10 micromolar—activity at higher concentrations was not measured).

In the case of `CCCCCc1ccc(S(=O)(=O)NC2(CC(=O)O)CCCN(C)C2)cc1` (centres unmarked) [Example S11, 3-(carboxymethyl)-1-methyl-3-(4-pentylphenylsulfonamido)piperidinium 2,2,2-trifluoroacetate], the IC50 (human CPT1A) is reported as 1 to 10 µM and the “activity against cancer cell lines” value [1] is reported as “did not exihibit activity at 10 μM”.

— patent US8680282B2, “Cyclic inhibitors of carnitine palmitoyltransferase and treating cancer” (University Health Network, priority 2007, dated 2014)
